# Columns and labels:
# human AT1 receptor = molecular target: T1, human AT1 receptor (Homo sapiens, UniProt P30556); assay: AT1 radioligand binding assay (displacement of [Eu]AngII); details: membranes of CHO-K1 cells expressing cloned human AT1 receptor; values given as lower bounds; read-out: AT1 pKi (converted)
# T1 construct: expressed in transfected cells; host or cells: CHO-K1
# T1 sequence (P30556 1-359): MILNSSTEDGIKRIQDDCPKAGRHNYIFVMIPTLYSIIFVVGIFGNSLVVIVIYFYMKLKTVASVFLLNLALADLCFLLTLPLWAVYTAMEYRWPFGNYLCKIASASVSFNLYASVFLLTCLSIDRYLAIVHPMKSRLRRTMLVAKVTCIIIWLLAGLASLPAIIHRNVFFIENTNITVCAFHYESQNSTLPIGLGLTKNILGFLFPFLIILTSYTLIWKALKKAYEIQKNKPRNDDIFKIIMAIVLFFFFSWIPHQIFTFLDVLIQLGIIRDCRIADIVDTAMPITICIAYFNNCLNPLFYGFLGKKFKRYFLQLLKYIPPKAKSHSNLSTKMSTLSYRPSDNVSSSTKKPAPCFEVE
# Protocol: A. AT1 and AT2 Radioligand Binding Assays
# These in vitro assays were used to assess the ability of test compounds to bind to the AT1 and the AT2 receptors.
# Membrane Preparation from Cells Expressing Human AT1 or AT2 Receptors
# Chinese hamster ovary (CHO-K1) derived cell lines stably expressing the cloned human AT1 or AT2 receptors, respectively, were grown in HAM's-F12 medium supplemented with 10% fetal bovine serum, 10 μg/ml penicillin/streptomycin, and 500 μg/ml geneticin in a 5% CO2 humidified incubator at 37° C. AT2 receptor expressing cells were grown in the additional presence of 100 nM PD123,319 (AT2 antagonist). When cultures reached 80-95% confluence, the cells were washed thoroughly in PBS and lifted with 5 mM EDTA. Cells were pelleted by centrifugation and snap frozen in MeOH-dry ice and stored at −80° C. until further use.
# For membrane preparation, cell pellets were resuspended in lysis buffer (25 mM Tris/HCl pH 7.5 at 4° C., 1 mM EDTA, and one tablet of Complete Protease Inhibitor Cocktail Tablets with 2 mM EDTA per 50 mL buffer (Roche cat.#1697498, Roche Molecular Biochemicals, Indianapolis, Ind.)) and homogenized using a tight-fitting Dounce glass homogenizer (10 strokes) on ice. The homogenate was centrifuged at 1000×g, the supernatant was collected and centrifuged at 20,000×g. The final pellet was resuspended in membrane buffer (75 mM Tris/HCl pH 7.5, 12.5 mM MgCl2, 0.3 mM EDTA, 1 mM EGTA, 250 mM sucrose at 4° C.) and homogenized by extrusion through a 20G gauge needle. Protein concentration of the membrane suspension was determined by the method described in Bradford (1976) Anal Biochem. 72:248-54. Membranes were snap frozen in MeOH-dry ice and stored at −80° C. until further use.
# Ligand Binding Assay to Determine Compound Affinities for the Human AT1 and AT2 Angiotensin Receptors
# Binding assays were performed in 96-well Acrowell filter plates (Pall Inc., cat.#5020) in a total assay volume of 100 μL with 0.2 μg membrane protein for membranes containing the human AT1 receptor, or 2 μg membrane protein for membranes containing the human AT2 receptor in assay buffer (50 mM Tris/HCl pH 7.5 at 20° C., 5 mM MgCl2, 25 μM EDTA, 0.025% BSA). Saturation binding studies for determination of Kd values of the ligand were done using N-terminally Europium-labeled angiotensin-II ([Eu]AngII, H-(Eu-N^1)-Ahx-Asp-Arg-Val-Tyr-Ile-His-Pro-Phe-OH; PerkinElmer, Boston, Mass.) at 8 different concentrations ranging from 0.1 nM to 30 nM. […] Drugs were dissolved to a concentration of 1 mM in DMSO and from there serially diluted into assay buffer. Non-specific binding was determined in the presence of 10 μM unlabeled angiotensin-II. Assays were incubated for 120 minutes in the dark, at room temperature or 37° C., and binding reactions were terminated by rapid filtration through the Acrowell filter plates followed by three washes with 200 μL ice cold wash buffer (50 mM Tris/HCl pH 7.5 at 4° C., 5 mM MgCl2) using a Waters filtration manifold. Plates were tapped dry and incubated with 50 μl DELFIA Enhancement Solution (PerkinElmer cat.#4001-0010) at room temperature for 5 minutes on a shaker. Filter-bound [Eu]AngII was quantitated immediately on a Fusion plate reader (PerkinElmer) using Time Resolved Fluorescence (TRF). Binding data were analyzed by nonlinear regression analysis with the GraphPad Prism Software package (GraphPad Software, Inc., San Diego, Calif.) using the 3-parameter model for one-site competition. The BOTTOM (curve minimum) was fixed to the value for nonspecific binding, as determined in the presence of 10 μM angiotensin II. Ki values for drugs were calculated from observed IC50 values and the Kd value of [Eu]AngII according to the Cheng-Prusoff equation described in Cheng et al. (1973) Biochem Pharmacol. 22 (23):3099-108. Selectivities of test compounds for the AT1 receptor over the AT2 receptor were calculated as the ratio of AT2Ki/AT1Ki. […]
# NEP enzyme = molecular target: T2, NEP enzyme (Homo sapiens, UniProt P08473); assay: NEP enzyme inhibition assay (fluorogenic peptide substrate); type: biochemical; details: values given as lower bounds; * = prodrugs, may not exhibit NEP activity in an in vitro assay; read-out: NEP pIC50 (converted)
# T2 construct: purchased R&D Systems, Minneapolis, Minn; 1182-ZN
# Protocol: B. In Vitro Assays for the Quantitation of Inhibitor Potencies (IC50) at Human and Rat NEP, and Human ACE
# The inhibitory activities of compounds at human and rat NEP and human ACE were determined using in vitro assays as described below.
# Recombinant human NEP and recombinant human ACE were obtained commercially (R&D Systems, Minneapolis, Minn., catalog numbers 1182-ZN and 929-ZN, respectively). The fluorogenic peptide substrate Mca-BK2 (Mca-Arg-Pro-Pro-Gly-Phe-Ser-Ala-Phe-Lys(Dnp)-OH; Johnson et al. (2000) Anal. Biochem. 286: 112-118) was used for the human NEP and ACE assays, and Mca-RRL (Mca-DArg-Arg-Leu-(Dnp)-OH; Medeiros et al. (1997) Braz. J. Med. Biol. Res. 30:1157-1162) was used for the rat NEP assay (both from Anaspec, San Jose, Calif.).
# The assays were performed in 384-well white opaque plates at room temperature using the respective fluorogenic peptides at a concentration of 10 μM in assay buffer (50 mM Tris/HCl at 25° C., 100 mM NaCl, 0.01% Tween-20, 1 μM Zn, 0.025% BSA). […] The rat NEP enzyme preparation was used at a concentration that yielded quantitative proteolysis of 3 μM of Mca-RRL within 20 minutes at room temperature.
# Test compounds were diluted to 12 concentrations from 10 μM to 20 pM in Assay Buffer. Assays were started by adding 25 μL of enzyme to 12.5 μL of test compound at each of the 12 concentrations. Test compounds were allowed to equilibrate with the enzyme for 10 minutes before 12.5 μL of the fluorogenic substrates were added to initiate the reaction. Reactions were terminated by the addition of 10 μL of 3.6% glacial acetic acid after 20 minutes of incubation.
# For sulfhydryl-containing test compounds, the test compounds may be diluted in Assay Buffer containing a 400 μM concentration of tris(2-carboxyethyl)phosphine hydrochloride (Thermo Scientific, Rockford, Ill.) (TCEP). The test compounds are then incubated for 40 minutes at room temperature (to allow for dimer cleavage) before adding the enzyme. Test compounds are then allowed to equilibrate with the enzyme for 20 minutes before adding the fluorogenic substrates. Reactions are terminated as above.
# Plates were read on a fluorometer with excitation and emission wavelengths set to 320 nm and 405 nm, respectively. Raw data (relative fluorescence units) were normalized to % activity from the average high readings (no inhibition, 100% enzyme activity) and average low readings (full inhibition, highest inhibitor concentration, 0% enzyme activity) using three standard NEP and ACE inhibitors, respectively. Nonlinear regression of the normalized data was performed using a one site competition model (GraphPad Software, Inc., San Diego, Calif.). Data were reported as pIC50 values.
# T2 sequence (P08473 52-750 limits assumed): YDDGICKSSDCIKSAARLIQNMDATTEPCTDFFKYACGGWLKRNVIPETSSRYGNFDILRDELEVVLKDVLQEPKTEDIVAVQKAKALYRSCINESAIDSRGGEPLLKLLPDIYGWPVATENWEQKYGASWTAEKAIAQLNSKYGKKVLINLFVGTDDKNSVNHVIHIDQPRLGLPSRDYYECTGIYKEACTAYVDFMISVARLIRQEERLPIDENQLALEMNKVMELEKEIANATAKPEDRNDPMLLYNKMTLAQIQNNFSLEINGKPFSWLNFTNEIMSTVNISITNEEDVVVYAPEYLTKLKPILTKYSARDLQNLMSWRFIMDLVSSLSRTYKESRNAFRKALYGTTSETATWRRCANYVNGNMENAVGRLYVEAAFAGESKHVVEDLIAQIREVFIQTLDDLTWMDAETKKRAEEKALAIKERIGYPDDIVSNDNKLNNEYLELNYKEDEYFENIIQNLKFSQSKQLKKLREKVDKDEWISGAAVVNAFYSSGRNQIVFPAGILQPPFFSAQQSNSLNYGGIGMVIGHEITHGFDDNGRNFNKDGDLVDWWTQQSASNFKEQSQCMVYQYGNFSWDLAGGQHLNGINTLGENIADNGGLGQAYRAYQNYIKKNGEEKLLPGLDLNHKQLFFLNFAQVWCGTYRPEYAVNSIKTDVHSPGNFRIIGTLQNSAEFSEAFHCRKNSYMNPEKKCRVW
Ki (human AT1 receptor),IC50 (NEP enzyme),SMILES
≤ 10 nM,≤ 100 nM,"CCCc1cc(C(=O)N[C@H](CC(C)C)CN(O)C=O)nn1Cc1ccc(-c2ccccc2S(=O)(=O)NC(C)=O)cc1 [Example 6-15, 1-(2′-Acetylsulfamoyl-biphenyl-4-ylmethyl)-5-propyl-1H-pyrazole-3-carboxylic acid {(R)-1-[(formyl-hydroxy-amino)-methyl]-3-methylbutyl}amide]"
≤ 10 nM,≤ 1000 nM,"CCCc1cc(C(=O)N[C@H](Cc2ccccc2)[C@@H](O)C(=O)O)nn1Cc1ccc(-c2ccccc2-c2nc(=O)o[nH]2)cc1 [Example 16-2, (2R,3R)-2-Hydroxy-3-({1-[2′-(5-oxo-2,5-dihydro-[1,2,4]oxadiazol-3-yl)biphenyl-4-ylmethyl]-5-propyl-1H-pyrazole-3-carbonyl}amino)-4-phenylbutyric acid]"
≤ 10 nM,≤ 100 nM,"CCCc1cc(C(=O)N[C@@H](CC(=O)O)Cc2ccccc2Cl)nn1Cc1ccc(-c2ccccc2-c2nnn[nH]2)nc1 [Example 10, (R)-4-(2-Chlorophenyl)-3-[(5-propyl-1-{6-[2-(1H-tetrazol-5-yl)phenyl]pyridin-3-ylmethyl}-1H-pyrazole-3-carbonyl)amino]butyric Acid]"
≤ 10 nM,≤ 10000 nM,"CCCc1cc(C(=O)N[C@H](Cc2ccccc2)[C@@H](O)C(=O)OC)nn1Cc1ccc(-c2ccccc2-c2nnn[nH]2)cc1 [Example 3-12, (2R,3R)-2-Hydroxy-4-phenyl-3-({5-propyl-1-[2′-(1H-tetrazol-5-yl)-biphenyl-4-ylmethyl]-1H-pyrazole-3-carbonyl}amino)butyric acid methyl ester]"
≤ 10 nM,≤ 100 nM,"CCCc1cc(C(=O)N[C@H](Cc2ccccc2)[C@@H](O)C(=O)O)nn1Cc1c(F)cc(-c2ccccc2S(=O)(=O)NC(C)=O)cc1F [Example 6-19, (2R,3R)-3-(1-((2′-(N-acetylsulfamoyl)-3,5-difluorobiphenyl-4-yl)methyl)-5-propyl-1H-pyrazole-3-carboxamido)-2-hydroxy-4-phenylbutanoic acid]"
≤ 100 nM,≤ 1000 nM,"CCCc1cc(C(=O)N[C@@H](CC(=O)O)Cc2ccccc2C(F)(F)F)nn1Cc1ccc(-c2ccccc2-c2nnn[nH]2)cc1F [Example 3-21, (R)-3-(1-((3-fluoro-2′-(1H-tetrazol-5-yl)biphenyl-4-yl)methyl)-5-propyl-1H-pyrazole-3-carboxamido)-4-(2-(trifluoromethyl)phenyl)butanoic acid]"
≤ 100 nM,≤ 1000 nM,"CCOc1cc(C(=O)N[C@H](Cc2ccccc2)[C@@H](O)C(=O)O)nn1Cc1ccc(-c2ccccc2-c2nnn[nH]2)cc1F [Example 3-8, (2R,3R)-3-({5-Ethoxy-1-[3-fluoro-2′-(1H-tetrazol-5-yl)biphenyl-4-ylmethyl]-1H-pyrazole-3-carbonyl}amino)-2-hydroxy-4-phenylbutyric acid]"
≤ 100 nM,≤ 1000 nM,"CCCc1cc(C(=O)N[C@@H](CC(=O)O)Cc2ccccc2C(F)(F)F)nn1Cc1ccc(-c2ccccc2-c2nnn[nH]2)c(F)c1 [Example 3-19, (R)-3-({1-[2-Fluoro-2′-(1H-tetrazol-5-yl)-biphenyl-4-ylmethyl]-5-propyl-1H-pyrazole-3-carbonyl}amino)-4-(2-trifluoromethylphenyl)butyric acid]"
≤ 10 nM,≤ 100 nM,"CCCc1cc(C(=O)N[C@@H](CC(=O)O)Cc2ccsc2)nn1Cc1ccc(-c2ccccc2-c2nnn[nH]2)nc1 [Example 14-10, (R)-3-[(5-Propyl-1-{6-[2-(1H-tetrazol-5-yl)-phenyl]-pyridin-3-ylmethyl}-1H-pyrazole-3-carbonyl)-amino]-4-thiophen-3-yl-butyric acid]"
≤ 10 nM,≤ 100 nM,"CCCc1cc(C(=O)N[C@H](Cc2ccccc2)[C@@H](O)C(=O)O)nn1Cc1ccc(-c2ccccc2S(=O)(=O)NC(C)=O)c(F)c1 [Example 6-7, (2R,3R)-3-{[1-(2′-Acetylsulfamoyl-2-fluorobiphenyl-4-ylmethyl)-5-propyl-1H-pyrazole-3-carbonyl]amino}-2-hydroxy-4-phenylbutyric acid]"
≤ 10 nM,≤ 1000 nM,"CCCc1cc(C(=O)N[C@@H](CC(=O)O)Cc2ccccc2C)nn1Cc1ccc(-c2ccccc2S(=O)(=O)NC(C)=O)cc1 [Example 6-26, (R)-3-{[1-(2′-Acetylsulfamoylbiphenyl-4-ylmethyl)-5-propyl-1H-pyrazole-3-carbonyl]amino}-4-o-tolylbutyric acid]"
≤ 10 nM,≤ 100 nM,"CCOc1cc(C(=O)N[C@@H](CS)Cc2ccccc2)nn1Cc1ccc(-c2ccccc2S(=O)(=O)NC(C)=O)cc1F [Example 6-1, 1-(2′-Acetylsulfamoyl-3-fluorobiphenyl-4-ylmethyl)-5-ethoxy-1H-pyrazole-3-carboxylic acid ((R)-1-benzyl-2-mercaptoethyl)amide]"
